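Cultured in 96-well plates, cells were exposed to test compound for 48 hours across five concentrations. GI50: concentration for 50% inhibition of growth.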 Active and inactive are the calls of the source. No stated cut-off is given here; in the data, active = GI50 up to about 1.1 µM and inactive = higher.
Assays:
Assay in all cases: growth of human tumour cells (NCI), 48 h
786-0 = test system: 786-0
A498 = test system: A498
A549 = test system: A549
ACHN = test system: ACHN
BT-549 = test system: BT-549
CAKI-1 = test system: CAKI-1
CCRF-CEM = test system: CCRF-CEM
COLO 205 = test system: COLO 205
DU-145 = test system: DU-145
EKVX = test system: EKVX
HCC 2998 = test system: HCC 2998
HCT-116 = test system: HCT-116
HCT-15 = test system: HCT-15
HL-60 = test system: HL-60
HOP-62 = test system: HOP-62
HT-29 = test system: HT-29
Hs-578T = test system: Hs-578T
IGROV-1 = test system: IGROV-1
K562 = test system: K562
KM12 = test system: KM12
LOX IMVI = test system: LOX IMVI
M14 = test system: M14
MCF7 = test system: MCF7
MDA-MB-231 = test system: MDA-MB-231
MDA-MB-435 = test system: MDA-MB-435
MDA-N = test system: MDA-N
MOLT-4 = test system: MOLT-4
Malme-3M = test system: Malme-3M
NCI-H226 = test system: NCI-H226
NCI-H23 = test system: NCI-H23
NCI-H460 = test system: NCI-H460
NCI-H522 = test system: NCI-H522
OVCAR-8 = test system: OVCAR-8
PC-3 = test system: PC-3
RPMI-8226 = test system: RPMI-8226
SF-268 = test system: SF-268
SF-295 = test system: SF-295
SF-539 = test system: SF-539
SK-MEL-28 = test system: SK-MEL-28
SK-MEL-5 = test system: SK-MEL-5
SK-OV-3 = test system: SK-OV-3
SN12C = test system: SN12C
SNB-19 = test system: SNB-19
SNB-75 = test system: SNB-75
SR = test system: SR
SW-620 = test system: SW-620
T47D = test system: T47D
TK-10 = test system: TK-10
UACC-257 = test system: UACC-257
UACC-62 = test system: UACC-62
UO-31 = test system: UO-31
HOP-92 = test system: HOP-92
NCI/ADR-RES = test system: NCI/ADR-RES
OVCAR-3 = test system: OVCAR-3
OVCAR-4 = test system: OVCAR-4
OVCAR-5 = test system: OVCAR-5
RXF 393 = test system: RXF 393
SK-MEL-2 = test system: SK-MEL-2
U-251 = test system: U-251

For COc1cc(/C=C2\N=C(C)N(n3c(-c4ccccc4)nc4ccccc4c3=O)C2=O)cc(OC)c1OC, the GI50 (786-0) was > 100 µM (inactive), the GI50 (A498) was > 100 µM (inactive) and the GI50 (A549) was > 100 µM (inactive). The GI50 (ACHN) was > 100 µM (inactive), the GI50 (BT-549) was > 100 µM (inactive) and the GI50 (CAKI-1) was > 100 µM (inactive). The GI50 (CCRF-CEM) was > 100 µM (inactive), the GI50 (COLO 205) was > 100 µM (inactive) and the GI50 (DU-145) was > 100 µM (inactive). For the same compound, the GI50 (EKVX) was > 100 µM (inactive), the GI50 (HCC 2998) was > 100 µM (inactive) and the GI50 (HCT-116) was > 100 µM (inactive). For the same compound, the GI50 (HCT-15) was greater than 100 µM, the GI50 (HL-60) was > 100 µM (inactive) and the GI50 (HOP-62) was > 100 µM (inactive). The GI50 (HT-29) was > 100 µM (inactive), the GI50 (Hs-578T) was > 100 µM (inactive) and the GI50 (IGROV-1) was > 100 µM (inactive). For the same compound, the GI50 (K562) was > 100 µM (inactive), the GI50 (KM12) was > 100 µM (inactive) and the GI50 (LOX IMVI) was > 100 µM (inactive). The GI50 (M14) was > 100 µM (inactive), the GI50 (MCF7) was > 100 µM (inactive) and the GI50 (MDA-MB-231) was > 100 µM (inactive). The GI50 (MDA-MB-435) was > 100 µM (inactive), the GI50 (MDA-N) was > 100 µM (inactive) and the GI50 (MOLT-4) was > 100 µM (inactive). The GI50 (Malme-3M) was > 100 µM (inactive), the GI50 (NCI-H226) was > 100 µM (inactive) and the GI50 (NCI-H23) was 94.6 µM (inactive). For the same compound, the GI50 (NCI-H460) was > 100 µM (inactive), the GI50 (NCI-H522) was 46.3 µM (inactive) and the GI50 (OVCAR-8) was > 100 µM (inactive). The GI50 (PC-3) was > 100 µM (inactive), the GI50 (RPMI-8226) was 85.3 µM (inactive) and the GI50 (SF-268) was > 100 µM (inactive). For the same compound, the GI50 (SF-295) was > 100 µM (inactive), the GI50 (SF-539) was > 100 µM (inactive) and the GI50 (SK-MEL-28) was > 100 µM (inactive). For the same compound, the GI50 (SK-MEL-5) was > 100 µM (inactive), the GI50 (SK-OV-3) was > 100 µM (inactive) and the GI50 (SN12C) was > 100 µM (inactive). For the same compound, the GI50 (SNB-19) was > 100 µM (inactive), the GI50 (SNB-75) was > 100 µM (inactive) and the GI50 (SR) was > 100 µM (inactive). For the same compound, the GI50 (SW-620) was > 100 µM (inactive), the GI50 (T47D) was 82.4 µM (inactive) and the GI50 (TK-10) was > 100 µM (inactive). For the same compound, the GI50 (UACC-257) was > 100 µM (inactive), the GI50 (UACC-62) was > 100 µM (inactive) and the GI50 (UO-31) was > 100 µM (inactive).
In the case of O=C1Nc2cc([N+](=O)[O-])ccc2C(=O)N2CCC[C@@H]12, the GI50 (786-0) is reported as > 100 µM (inactive), the GI50 (A498) is reported as > 100 µM (inactive) and the GI50 (A549) is reported as > 100 µM (inactive). For the same compound, the GI50 (ACHN) was > 100 µM (inactive), the GI50 (BT-549) was > 100 µM (inactive) and the GI50 (CAKI-1) was > 100 µM (inactive). For the same compound, the GI50 (CCRF-CEM) was > 100 µM (inactive), the GI50 (COLO 205) was > 100 µM (inactive) and the GI50 (DU-145) was > 100 µM (inactive). For the same compound, the GI50 (EKVX) was > 100 µM (inactive), the GI50 (HCC 2998) was > 100 µM (inactive) and the GI50 (HCT-116) was > 100 µM (inactive). The GI50 (HCT-15) was greater than 100 µM, the GI50 (HL-60) was > 100 µM (inactive) and the GI50 (HOP-62) was > 100 µM (inactive). The GI50 (HOP-92) was > 100 µM (inactive), the GI50 (HT-29) was > 100 µM (inactive) and the GI50 (Hs-578T) was > 100 µM (inactive). The GI50 (IGROV-1) was > 100 µM (inactive), the GI50 (K562) was > 100 µM (inactive) and the GI50 (KM12) was > 100 µM (inactive). The GI50 (LOX IMVI) was > 100 µM (inactive), the GI50 (M14) was > 100 µM (inactive) and the GI50 (MCF7) was > 100 µM (inactive). For the same compound, the GI50 (MDA-MB-231) was > 100 µM (inactive), the GI50 (MDA-MB-435) was > 100 µM (inactive) and the GI50 (MOLT-4) was > 100 µM (inactive). The GI50 (NCI-H226) was > 100 µM (inactive), the GI50 (NCI-H23) was > 100 µM (inactive) and the GI50 (NCI-H460) was > 100 µM (inactive). The GI50 (NCI-H522) was > 100 µM (inactive), the GI50 (NCI/ADR-RES) was > 100 µM (inactive) and the GI50 (OVCAR-3) was > 100 µM (inactive). The GI50 (OVCAR-4) was > 100 µM (inactive), the GI50 (OVCAR-5) was > 100 µM (inactive) and the GI50 (OVCAR-8) was > 100 µM (inactive). For the same compound, the GI50 (PC-3) was > 100 µM (inactive), the GI50 (RPMI-8226) was > 100 µM (inactive) and the GI50 (RXF 393) was > 100 µM (inactive). The GI50 (SF-268) was > 100 µM (inactive), the GI50 (SF-295) was > 100 µM (inactive) and the GI50 (SF-539) was > 100 µM (inactive). The GI50 (SK-MEL-28) was > 100 µM (inactive), the GI50 (SK-MEL-2) was > 100 µM (inactive) and the GI50 (SK-MEL-5) was > 100 µM (inactive). The GI50 (SK-OV-3) was > 100 µM (inactive), the GI50 (SN12C) was > 100 µM (inactive) and the GI50 (SNB-19) was > 100 µM (inactive). For the same compound, the GI50 (SNB-75) was > 100 µM (inactive), the GI50 (SR) was > 100 µM (inactive) and the GI50 (SW-620) was > 100 µM (inactive). The GI50 (T47D) was > 100 µM (inactive), the GI50 (TK-10) was > 100 µM (inactive) and the GI50 (U-251) was > 100 µM (inactive). The GI50 (UACC-257) was > 100 µM (inactive), the GI50 (UACC-62) was > 100 µM (inactive) and the GI50 (UO-31) was > 100 µM (inactive).

Source: ChEMBL document CHEMBL1201862, “PubChem BioAssay data set” (2004)
